Where a SMILES comes first, the peptide text is derived from it. The star is where a group is joined. FITC = O=C1OC2(c3ccc(O)cc3Oc3cc(O)ccc32)c2ccc(NC(=S)*)cc21
How the values were obtained:
[1] = biological target: FITC-labeled synthetic LCPss (S. salivarius); assay: fluorescence polarisation; purified RopBss titrated against FITC-labeled LCPss; 20 mM potassium phosphate pH 6.0, 75 mM NaCl, 2% DMSO, 1 mM EDTA, 0.0005% Tween 20
WT S. salivarius = details: 30 min, fluorescence and microscopy
Source text: Cells were harvested by centrifugation, and washed three times with sterile PBS. Cells were fixed on the coverslip using 1% glutaraldehyde and 3% formaldehyde. The images were taken using a Nikon Eclipse TiN-STORM super resolution microscope equipped with iXon3 897 EM-CCD camera.

[2] = tested on: specific DNA/promoter sequences; details: peer review response; ref "our detailed published findings"; cited from earlier work
Source text: page 13: not provide the desired explanation for the differences in the binding sites of both receptors. Consequently, we provided analyses and explanation in the previous version that is supported by the data and meaningful. - Regarding this point, it has recently been published that RopB-GAS might act as a repressor and not as a transcriptional activator (DOI: 10.26508/lsa.202201809), as the authors show for RopBss. Could this fact explain the differences in their binding sites? Perhaps this point would be interesting to discuss in the manuscript. RESPONSE: We are aware of this study. Howeve ...

[3] = tested on: bacterial virulence in animal models of infection; details: cited from earlier work
Source text: (§1) Recently, we discovered a new class of leaderless communication peptide (LCP) in human pathogen Streptococcus pyogenes that controls bacterial virulence (Fig. 1a)[10]. Contrary to characterized bacterial peptide signals, the LCP, known as SpeB-inducing peptide (SIP), is synthesized from a 24 base pair ultrasmall open reading frame (usORF) encoding a mature 8 amino acid peptide without the amino acid sequences required for secretion and processing. Consistent with the lack of hallmarks of bacterial peptide signals, the canonical machineries required for the export and import of qs peptides ...

[4] = tested on: secreted cysteine protease SpeB; details: S. pyogenes; cited from earlier work
Source text: as §1

RopB = details: S. pyogenes; cited from earlier work
Source text: as §1

RopBss (RopB homolog, cytosolic LCP receptor of Streptococcus salivarius)
Kd [1]: 8 nM

CC[C@H](C)[C@H](NC(=O)[C@H](CC(C)C)NC(=O)[C@H](Cc1c[nH]c2ccccc12)NC(=O)[C@H](CCSC)NC(=S)Nc1ccc2c(c1)C(=O)OC21c2ccc(O)cc2Oc2cc(O)ccc21)C(=O)N[C@@H](CC(C)C)C(=O)N[C@@H](CC(C)C)C(=O)N[C@@H](Cc1ccccc1)C(=O)N[C@@H](CC(C)C)C(=O)O [FITC-LCPss] ({FITC}-MWLILLFL-OH)
Internalization of exogenously added peptide (in words) (WT S. salivarius): internalization of the exogenously added FITC-labeled synthetic LCPss

MWLLLLFL [SIP, SpeB-inducing peptide of Streptococcus pyogenes, mature 8 amino acid peptide]
RopB binding to promoter sequences in the presence of SIP (in words) [2]: with high affinity only in the presence of SIP | Bacterial virulence (in words) [3]: increased bacterial virulence in animal models of infection | SpeB regulation (in words) [4]: upregulation of an adjacently located virulence factor, a secreted cysteine protease SpeB | Binding to RopB (in words) (RopB): binds to a RRNPPA-family transcription activator, Regulator of Protease B (RopB)

— PMC10518010, “The leaderless communication peptide (LCP) class of quorum-sensing peptides is broadly distributed among Firmicutes” (Nature Communications, 2023)
